Test results taken from patent US11708344B2, “Flavone derivatives for the treatment and prophylaxis of hepatitis B virus disease” (Hoffmann-La Roche Inc., priority 2018, dated 2023).
Read-outs that look alike come from different tables or passages of the source.

Experiments:
[1] = tested on: HBeAg (surrogate marker for cccDNA) in HepDES19 cells; experiment: Engineered HepDES19 primary screen assay (HBeAg ELISA); format: cell-based, HBV
Procedure, shortened: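 HepDES19 cells were induced by Tet withdrawal for 8 days, then treated with half-log compound dilutions (1% DMSO final) for 5 days at 37 °C. HBeAg was measured by ELISA as the cccDNA surrogate, viability by CCK-8, and IC50 from a 4-parameter logistic fit.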

[2] = Human microsome stability assay; format: in vitro ADME; settings: human liver microsomes, 1 μM test compound, 0.5 mg/mL microsomal protein, 37° C., pH 7.4, 0-30 minutes
Protocol: The human microsomal stability assay is used for early assessment of metabolic stability of a test compound in human liver microsomes.
Human liver microsomes (Cat. NO.: 452117, Corning, USA; Cat. NO.: H2610, Xenotech, USA) were preincubated with test compound for 10 minutes at 37° C. in 100 mM potassium phosphate buffer, pH 7.4. The reactions were initiated by adding NADPH regenerating system. The final incubation mixtures contained 1 μM test compound, 0.5 mg/mL liver microsomal protein, 1 mM MgCl2, 1 mM NADP, 1 unit/mL isocitric dehydrogenase and 6 mM isocitric acid in 100 mM potassium phosphate buffer, pH 7.4. After incubation times of 0, 3, 6, 9, 15 and 30 minutes at 37° C., 300 μL of cold ACN (including internal standard) was added to 100 μL incubation mixture to terminate the reaction. Following precipitation and centrifugation, the amount of compound remaining in the samples was determined by LC-MS/MS. Controls of no NADPH regenerating system at zero and 30 minutes were also prepared and analyzed.

[3] = Hepatitis B virus, HepDES19, 120 h, read-out: IC50 (HBeAg level, HepDES19 primary screen assay), HepDES19 cells, 5 days compound incubation, HBeAg ELISA

In the case of O=C(O)[C@H]1CCCN1C(=O)COc1cc(C(F)(F)F)ccc1-c1cc(=O)c2cccc(Cl)c2o1 [Example A081, (2R)-1-[2-[2-(8-chloro-4-oxo-chromen-2-yl)-5-(trifluoromethyl)phenoxy]acetyl]pyrrolidine-2-carboxylic acid], the IC50 ([1]; read-out: IC50 (HBeAg level, HepDES19 primary screen assay), HepDES19 cells, 5 days compound incubation, HBeAg ELISA) is reported as 0.26 µM and the “Clearance of Human microsome” value [2] is reported as 0.369 L/h/kg.
For O=C(O)COCCOc1cc(C(F)(F)F)ccc1-c1cc(=O)c2cccc(Cl)c2o1 [Example C005, 2-[2-[2-(8-chloro-4-oxo-chromen-2-yl)-5-(trifluoromethyl)phenoxy]ethoxy]acetic acid], the IC50 [1, 3] was 17.7 µM and the “Clearance of Human microsome” value [2] was 0.485 L/h/kg.
For O=C(O)CCCCOc1cc(C(F)(F)F)ccc1-c1cc(=O)c2cccc(Cl)c2o1 [Example A065, 5-[2-(8-chloro-4-oxo-chromen-2-yl)-5-(trifluoromethyl)phenoxy]pentanoic acid], the IC50 [1, 3] was 1.9 µM and the “Clearance of Human microsome” value [2] was 0.369 L/h/kg.
In the case of Cc1cc(Br)c(OC2CC(C(=O)O)C2)c(-c2cc(=O)c3cccc(Cl)c3o2)c1 (stereo not drawn) [Example B009, 3-[2-bromo-6-(8-chloro-4-oxo-chromen-2-yl)-4-methyl-phenoxy]cyclobutanecarboxylic acid], the IC50 [1, 3] is reported as 5.98 µM and the “Clearance of Human microsome” value [2] is reported as 0.371 L/h/kg.
In the case of COc1cc(OCC2(CC(=O)O)CC2)c(-c2cc(=O)c3cccc(Cl)c3o2)cc1OC [Example A067, 2-[1-[[2-(8-chloro-4-oxo-chromen-2-yl)-4,5-dimethoxy-phenoxy]methyl]cyclopropyl]acetic acid], the IC50 [1, 3] is reported as 1.68 µM and the “Clearance of Human microsome” value [2] is reported as 0.369 L/h/kg.
In the case of O=c1cc(-c2ccc(Br)cc2OCCCO[C@H]2C[C@@H](C(=O)O)C2)oc2c(Cl)cccc12 [Example C056-A, Cis-3-[3-[5-bromo-2-(8-chloro-4-oxo-chromen-2-yl)phenoxy]propoxy]cyclobutanecarboxylic acid], the IC50 [1, 3] is reported as 2.39 µM and the “Clearance of Human microsome” value [2] is reported as 0.369 L/h/kg.
For Cc1ccc(-c2cc(=O)c3cccc(Cl)c3o2)c(OCC(=O)N2CCC[C@H]2C(=O)O)c1 [Example A078, (2S)-1-[2-[2-(8-chloro-4-oxo-chromen-2-yl)-5-methyl-phenoxy]acetyl]pyrrolidine-2-carboxylic acid], the IC50 [1, 3] was 10.2 µM and the “Clearance of Human microsome” value [2] was 0.369 L/h/kg.
In the case of O=C(O)C1CCC(OCCCOc2cc(C(F)(F)F)ccc2-c2cc(=O)c3cccc(Cl)c3o2)C1 (stereo not drawn) [Example C104, 3-[3-[2-(8-chloro-4-oxo-chromen-2-yl)-5-(trifluoromethyl)phenoxy]propoxy]cyclopentanecarboxylic acid], the IC50 [1, 3] is reported as 4.46 µM and the “Clearance of Human microsome” value [2] is reported as 0.369 L/h/kg.
With CCOc1ccc(OCCO[C@H]2C[C@@H](C(=O)O)C2)c(-c2cc(=O)c3cccc(Cl)c3o2)c1 [Example C051-A, Cis-3-[2-[2-(8-chloro-4-oxo-chromen-2-yl)-4-ethoxy-phenoxy]ethoxy]cyclobutanecarboxylic acid] the IC50 [1, 3] was 4.14 µM and the “Clearance of Human microsome” value [2] was 0.369 L/h/kg.
For O=C(O)CC1(COc2cc(Br)ccc2-c2cc(=O)c3cccc(Cl)c3o2)CC1 [Example A069, 2-[1-[[5-bromo-2-(8-chloro-4-oxo-chromen-2-yl)phenoxy]methyl]cyclopropyl]acetic acid], the IC50 [1, 3] was 2.73 µM and the “Clearance of Human microsome” value [2] was 0.369 L/h/kg.
In the case of O=c1cc(-c2cccc(Br)c2OCCO[C@H]2C[C@@H](C(=O)O)C2)oc2c(Cl)cc(F)cc12 [Example C070, Cis-3-[2-[2-bromo-6-(8-chloro-6-fluoro-4-oxo-chromen-2-yl)phenoxy]ethoxy]cyclobutanecarboxylic acid], the IC50 [1, 3] is reported as 13.1 µM and the “Clearance of Human microsome” value [2] is reported as 0.565 L/h/kg.
In the case of Cc1cc(Br)c(OCCC(=O)O)c(-c2cc(=O)c3cccc(Cl)c3o2)c1 [Example A018, 3-[2-bromo-6-(8-chloro-4-oxo-chromen-2-yl)-4-methyl-phenoxy]propanoic acid], the IC50 [1, 3] is reported as 3.32 µM and the “Clearance of Human microsome” value [2] is reported as 0.369 L/h/kg.
With COc1cc(-c2cc(=O)c3cccc(Cl)c3o2)c(OCCO[C@H]2C[C@@H](C(=O)O)C2)cc1OCC1CC1 [Example C079, Cis-3-[2-[2-(8-chloro-4-oxo-chromen-2-yl)-5-(cyclopropylmethoxy)-4-methoxy-phenoxy]ethoxy]cyclobutanecarboxylic acid] the IC50 [1, 3] was 5.5 µM and the “Clearance of Human microsome” value [2] was 0.369 L/h/kg.
For O=c1cc(-c2cc3c(cc2OCCO[C@H]2C[C@@H](C(=O)O)C2)OC(F)(F)O3)oc2c(Cl)cccc12 [Example C102, Cis-3-[2-[[6-(8-chloro-4-oxo-chromen-2-yl)-2,2-difluoro-1,3-benzodioxol-5-yl]oxy]ethoxy]cyclobutanecarboxylic acid], the IC50 [1, 3] was 7 µM and the “Clearance of Human microsome” value [2] was 0.427 L/h/kg.
With O=C(O)[C@@H]1CCN(C(=O)COCCOc2cc(Br)ccc2-c2cc(=O)c3cccc(Cl)c3o2)C1 [Example C111, (3R)-1-[2-[2-[5-bromo-2-(8-chloro-4-oxo-chromen-2-yl)phenoxy]ethoxy]acetyl]pyrrolidine-3-carboxylic acid] the IC50 [1, 3] was 1.25 µM and the “Clearance of Human microsome” value [2] was 0.369 L/h/kg.
For O=C(COCCOc1cc(Br)ccc1-c1cc(=O)c2cccc(Cl)c2o1)NS(=O)(=O)C1CC1 [Example C116, 2-[2-[5-bromo-2-(8-chloro-4-oxo-chromen-2-yl)phenoxy]ethoxy]-N-cyclopropylsulfonyl-acetamide], the IC50 [1, 3] was 9.13 µM and the “Clearance of Human microsome” value [2] was 0.369 L/h/kg.
In the case of Cc1ccc(O[C@H]2C[C@@H](C(=O)O)C2)c(-c2cc(=O)c3cccc(Cl)c3o2)c1 [Example B016, Cis-3-[2-(8-chloro-4-oxo-chromen-2-yl)-4-methyl-phenoxy]cyclobutanecarboxylic acid], the IC50 [1, 3] is reported as 3.1 µM and the “Clearance of Human microsome” value [2] is reported as 0.369 L/h/kg.
For O=c1cc(-c2cc(F)c(Br)cc2OCCO[C@H]2C[C@H](C(=O)O)C2)oc2c(Cl)cccc12 [Example C044-B, Trans-3-[2-[5-bromo-2-(8-chloro-4-oxo-chromen-2-yl)-4-fluoro-phenoxy]ethoxy]cyclobutanecarboxylic acid], the IC50 [1, 3] was 1.57 µM and the “Clearance of Human microsome” value [2] was 0.56 L/h/kg.
With Cc1cc(-c2cc(=O)c3cccc(Br)c3o2)c(OCCCOCC(=O)O)cc1Cl [Example C018, 2-[3-[2-(8-bromo-4-oxo-chromen-2-yl)-5-chloro-4-methyl-phenoxy]propoxy]acetic acid] the IC50 [1, 3] was 4.82 µM and the “Clearance of Human microsome” value [2] was 0.404 L/h/kg.
In the case of O=c1cc(-c2ccccc2OCCO[C@H]2C[C@@H](C(=O)O)C2)oc2c(C(F)(F)F)cccc12 [Example C047-A, Cis-3-[2-[2-[4-oxo-8-(trifluoromethyl)chromen-2-yl]phenoxy]ethoxy]cyclobutanecarboxylic acid], the IC50 [1, 3] is reported as 16.6 µM and the “Clearance of Human microsome” value [2] is reported as 0.369 L/h/kg.
With O=c1cc(-c2ccc(F)cc2OCCO[C@H]2C[C@@H](C(=O)O)C2)oc2c(Cl)cc(F)cc12 [Example C045-A, Cis-3-[2-[2-(8-chloro-6-fluoro-4-oxo-chromen-2-yl)-5-fluoro-phenoxy]ethoxy]cyclobutanecarboxylic acid] the IC50 [1, 3] was 2.62 µM and the “Clearance of Human microsome” value [2] was 0.392 L/h/kg.
For Cc1cc(-c2cc(=O)c3cccc(Cl)c3o2)c(O[C@H]2C[C@@H](C(=O)O)N(S(=O)(=O)c3ccccc3)C2)cc1Cl [Example B084, (2S,4S)-1-(benzenesulfonyl)-4-[5-chloro-2-(8-chloro-4-oxo-chromen-2-yl)-4-methyl-phenoxy]pyrrolidine-2-carboxylic acid], the IC50 [1, 3] was 0.533 µM and the “Clearance of Human microsome” value [2] was 0.369 L/h/kg.
With O=c1cc(-c2ncc(Br)cc2OCCO[C@H]2C[C@H](C(=O)O)C2)oc2c(Cl)cccc12 [Example C027] the IC50 [1, 3] was 1.8 µM and the “Clearance of Human microsome” value [2] was 0.369 L/h/kg.
With COc1cc(OCCO[C@H]2C[C@@H](C(=O)O)C2)c(-c2cc(=O)c3cccc(Cl)c3o2)cc1Br [Example C040-A, Cis-3-[2-[4-bromo-2-(8-chloro-4-oxo-chromen-2-yl)-5-methoxy-phenoxy]ethoxy]cyclobutanecarboxylic acid] the IC50 [1, 3] was 13.2 µM and the “Clearance of Human microsome” value [2] was 0.511 L/h/kg.
In the case of O=C(O)C1CCC(OCCCOc2cc(Br)ccc2-c2cc(=O)c3cccc(Cl)c3o2)C1 (stereo not drawn) [Example C105, 3-[3-[5-bromo-2-(8-chloro-4-oxo-chromen-2-yl)phenoxy]propoxy]cyclopentanecarboxylic acid], the IC50 [1, 3] is reported as 1.74 µM and the “Clearance of Human microsome” value [2] is reported as 0.369 L/h/kg.
With O=c1cc(-c2ccc(C(F)(F)F)cc2O[C@H]2C[C@H](C(=O)O)C2)oc2c(Cl)ccc(O)c12 [Example B038-B, Trans-3-[2-(8-chloro-5-hydroxy-4-oxo-chromen-2-yl)-5-(trifluoromethyl)phenoxy]cyclobutanecarboxylic acid] the IC50 [1, 3] was 0.312 µM and the “Clearance of Human microsome” value [2] was 0.575 L/h/kg.
For COc1cc(Cl)c2oc(-c3ccc(C(F)(F)F)cc3OCCC(=O)O)cc(=O)c2c1 [Example A033, 3-[2-(8-chloro-6-methoxy-4-oxo-chromen-2-yl)-5-(trifluoromethyl)phenoxy]propanoic acid], the IC50 [1, 3] was 0.479 µM and the “Clearance of Human microsome” value [2] was 0.369 L/h/kg.
